The target of assay [1] is BuChE (Homo sapiens, UniProt P06276). Put plainly: biochemical. Format: biochemical. The method, then:
(§1) Each concentration was tested three times in parallel, and 96 empty plates were taken, and 20 µL of the test sample or positive drug (10% DMSO was added to the blank control), 40 µL of AChE or BuChE (0.2 U/mL) and 100 µL of DTNB (0.001 mol/L) were added in turn, mixed well and incubated in a constant temperature water bath at 37 °C for 15 min.

For assay [2], the target named is AChE (Homo sapiens, UniProt P22303). Put plainly: biochemical. Format: biochemical. How it is done: as §1
Assay [3] has as its target MAO. Put plainly: MAO inhibitory activity (Holts method, rat liver mitochondrial enzyme). The format is biochemical. How it is done:
(§2) Male SD rats were sacrificed by decapitation, operated on ice, their livers were removed, and the liver surface was washed with precooled phosphate buffer. The liver was cut into pieces, and after washing (using PBS), 20 mL of 0.3 M sucrose buffer was added for homogenization. After fully homogenized, it was balanced by a tray balance. Low–temperature differential centrifugation was performed, and the obtained SD rat liver mitochondrial concentrate was the experimental monoamine oxidase stock solution, and was stored in a −80 °C refrigerator.
(§3) Added 25 µL of enzyme dilution solution and 25 µL of test derivatives (control group plus rasagiline, blank group plus 10% DMSO) to 96–well plate, incubated at 37 °C for 1 h, then 120 µL of substrate was added, 80 µL of chromogenic solution was added, incubated at 37 °C for 30 min, and its absorbance measured at 490 nm. In addition, in order to exclude the influence of protein, a protein control group was established, only the enzyme dilution was added, and the rest were replaced with PBS, and the absorbance value was detected at a wavelength of 490 nm. The inhibition rate of each concentration was substituted into the calculation software GraphPad Prism 8 to calculate the IC50 value.

The target of assay [4] is T1, MAO–B (Rattus norvegicus, UniProt P19643).
T1 construct: the obtained SD rat liver mitochondrial concentrate was the experimental monoamine oxidase stock solution; from tissue; host or cells: male SD rat liver mitochondria
T1 sequence (P19643 1-520): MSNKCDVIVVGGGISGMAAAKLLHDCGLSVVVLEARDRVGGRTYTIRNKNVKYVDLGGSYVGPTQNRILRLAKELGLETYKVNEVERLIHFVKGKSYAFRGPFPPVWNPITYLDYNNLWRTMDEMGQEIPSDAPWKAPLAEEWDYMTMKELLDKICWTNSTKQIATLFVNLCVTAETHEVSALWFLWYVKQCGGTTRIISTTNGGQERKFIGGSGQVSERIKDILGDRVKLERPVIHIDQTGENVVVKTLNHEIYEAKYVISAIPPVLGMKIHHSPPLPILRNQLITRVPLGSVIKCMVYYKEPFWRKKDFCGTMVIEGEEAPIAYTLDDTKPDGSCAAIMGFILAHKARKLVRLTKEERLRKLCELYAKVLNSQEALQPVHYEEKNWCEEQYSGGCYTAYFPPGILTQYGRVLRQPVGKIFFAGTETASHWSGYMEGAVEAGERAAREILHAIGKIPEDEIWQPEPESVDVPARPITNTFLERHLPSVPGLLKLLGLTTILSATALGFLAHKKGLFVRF
Put plainly: MAO–B inhibitory activity (enzyme pre-incubated with chlorgiline). The format is biochemical. How it is done: as §2, §3
The inhibition rate of each concentration was substituted into the calculation software GraphPad Prism 8 to calculate the IC50 value.

Assay [5] deals with ICR male mice. Put plainly: Forced swimming test (FST). To be noted: i.p., 30 mg/kg; for DID (%) percentage decrease in immobility duration: vs control. The format is in vivo. How it is done: Pharmacological experiments of antidepressant activity used FST in mice, fluoxetine hydrochloride was used as a positive control, and the vehicle solvent PFG–400 was used as a blank control. The experiment used ICR male mice (20 ± 2 g). Six benzothiazole–quinoline derivatives were dissolved in polyethylene glycol–400, and 30 min after administration (i.p., 30 mg/kg), the mice were each placed in a glass cylinder, recording the time of immobility. Duration of immobility outcomes is expressed as mean ± SEM. The t-test was used to make comparisons between groups.

AChE, sequence (P22303 32-614): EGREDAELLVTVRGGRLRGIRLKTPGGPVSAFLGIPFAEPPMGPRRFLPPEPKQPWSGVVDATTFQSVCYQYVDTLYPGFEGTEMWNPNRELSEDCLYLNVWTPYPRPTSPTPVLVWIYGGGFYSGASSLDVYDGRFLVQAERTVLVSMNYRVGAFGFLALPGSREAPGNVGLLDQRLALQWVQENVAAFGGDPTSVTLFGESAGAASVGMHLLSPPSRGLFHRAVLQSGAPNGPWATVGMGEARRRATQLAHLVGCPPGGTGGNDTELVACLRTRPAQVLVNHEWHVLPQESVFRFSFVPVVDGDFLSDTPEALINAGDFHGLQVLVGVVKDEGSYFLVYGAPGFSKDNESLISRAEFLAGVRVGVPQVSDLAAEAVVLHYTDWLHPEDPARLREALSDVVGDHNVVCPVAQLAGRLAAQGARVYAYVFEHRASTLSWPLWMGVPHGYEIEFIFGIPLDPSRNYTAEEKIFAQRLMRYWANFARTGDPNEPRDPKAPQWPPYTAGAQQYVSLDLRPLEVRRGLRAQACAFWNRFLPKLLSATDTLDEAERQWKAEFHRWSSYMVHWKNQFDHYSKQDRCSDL
BuChE, sequence (P06276 29-602): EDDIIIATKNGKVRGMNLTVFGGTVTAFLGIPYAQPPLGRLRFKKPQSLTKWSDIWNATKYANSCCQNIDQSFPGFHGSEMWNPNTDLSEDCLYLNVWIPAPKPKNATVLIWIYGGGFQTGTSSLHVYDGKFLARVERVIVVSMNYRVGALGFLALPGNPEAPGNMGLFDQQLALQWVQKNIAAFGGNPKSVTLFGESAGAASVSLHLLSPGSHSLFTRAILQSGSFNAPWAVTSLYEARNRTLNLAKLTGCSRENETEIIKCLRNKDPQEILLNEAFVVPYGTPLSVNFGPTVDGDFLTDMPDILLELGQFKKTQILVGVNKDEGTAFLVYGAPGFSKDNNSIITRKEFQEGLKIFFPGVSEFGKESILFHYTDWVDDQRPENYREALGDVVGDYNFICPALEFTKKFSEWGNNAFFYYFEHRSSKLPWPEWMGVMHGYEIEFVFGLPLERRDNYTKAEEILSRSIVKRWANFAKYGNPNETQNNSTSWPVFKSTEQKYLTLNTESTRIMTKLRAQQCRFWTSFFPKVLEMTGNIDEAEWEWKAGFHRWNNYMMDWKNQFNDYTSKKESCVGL

Take `Cc1ccc2sc(NC(=O)CN3CCc4ccccc4[C@H]3c3ccccc3)nc2c1` [Compound 4h, (R)–N–(5–methylbenzo[d]thiazol–2–yl)–2–(1–phenyl–3,4–dihydroisoquinolin–2(1H)–yl)acetamide]: in assay [1], the IC50 (in general, the concentration at which inhibition is half-maximal) was determined as 11.5 ± 3.22 µM and the “Inhibition Rate (%) BuChE” value is listed as 37.44%. Besides, in assay [2], the IC50 is more than 150 µM and the “Inhibition Rate (%) AChE” value was 3.31%. Further, in assay [3], the 50% inhibitory concentration (IC50) is 76.4 ± 2.58 µM and the “Inhibition Rate of MAO (%)” value is 16.72%.
Consider `O=C(CN1CCc2ccccc2[C@H]1c1ccccc1)Nc1nc2ccc([N+](=O)[O-])cc2s1` [Compound 4n, (R)–N–(6–nitrobenzo[d]thiazol–2–yl)–2–(1–phenyl–3,4–dihydroisoquinolin–2(1H)–yl)acetamide], for which, in assay [1], the midpoint of inhibition, the IC50, lay at 12.3 ± 3.76 µM and the “Inhibition Rate (%) BuChE” value stood at 20.31%. Besides, in assay [2], the half-inhibitory concentration (IC50) was more than 150 µM and the “Inhibition Rate (%) AChE” value stood at 2.76%. Further, in assay [3], the half-inhibitory concentration (IC50) is more than 150 µM and the “Inhibition Rate of MAO (%)” value worked out at 12.51%.
Take `O=C(CN1CCc2ccccc2[C@H]1c1ccccc1)Nc1nc2ccc(F)cc2s1` [Compound 4m, (R)–N–(6–fluorobenzo[d]thiazol–2–yl)–2–(1–phenyl–3,4–dihydroisoquinolin–2(1H)–yl)acetamide]: in assay [1], half-maximal inhibition (IC50) was put at 50.3 ± 1.68 µM and the “Inhibition Rate (%) BuChE” value is 22.33%. For the same molecule, in assay [2], the IC50 is more than 150 µM and the “Inhibition Rate (%) AChE” value is given as 2.76%. In assay [3], the IC50 was more than 150 µM and the “Inhibition Rate of MAO (%)” value is listed as 9.76%.
Consider `O=C(CN1CCc2ccccc2[C@H]1c1ccccc1)Nc1nc2cc(Br)ccc2s1` [Compound 4e, (R)–N–(5–bromobenzo[d]thiazol–2–yl)–2–(1–phenyl–3,4–dihydroisoquinolin–2(1H)–yl)acetamide], for which, in assay [1], the half-maximal inhibitory concentration (IC50) turned out to be 18.3 ± 2.68 µM and the “Inhibition Rate (%) BuChE” value was determined as 68.80%. Further, in assay [2], the concentration for half-maximal inhibition (IC50) is more than 150 µM and the “Inhibition Rate (%) AChE” value was found to be 4.97%. Further, in assay [3], inhibition was half-maximal at 128.1 ± 1.27 µM (IC50) and the “Inhibition Rate of MAO (%)” value was determined as 9.29%.
Regarding `O=C(CN1CCc2ccccc2[C@H]1c1ccccc1)Nc1nc2c(Cl)cc(Cl)cc2s1` [Compound 4o, (R)–N–(4,6–dichlorobenzo[d]thiazol–2–yl)–2–(1–phenyl–3,4–dihydroisoquinolin–2(1H)–yl)acetamide], in assay [1], 21.8 ± 2.85 µM corresponded to half-maximal inhibition (IC50) and the “Inhibition Rate (%) BuChE” value is 52.16%. Further, in assay [2], the half-maximal inhibitory concentration (IC50) was more than 150 µM and the “Inhibition Rate (%) AChE” value is 3.87%. In assay [3], the half-maximal inhibitory concentration (IC50) worked out at 67.8 ± 1.26 µM and the “Inhibition Rate of MAO (%)” value stood at 10.19%.
`COc1ccc2nc(NC(=O)CN3CCc4ccccc4[C@H]3c3ccccc3)sc2c1` [Compound 4l, (R)–N–(6–methoxybenzo[d]thiazol–2–yl)–2–(1–phenyl–3,4–dihydroisoquinolin–2(1H)–yl)acetamide]: in assay [1], it took 3.86 ± 0.82 µM to reach half-maximal inhibition (IC50) and the “Inhibition Rate (%) BuChE” value came to 41.92%. Further, in assay [2], the IC50 is more than 150 µM and the “Inhibition Rate (%) AChE” value was 3.31%. For the same molecule, in assay [3], half-maximal inhibition (IC50) was put at 76.3 ± 2.94 µM and the “Inhibition Rate of MAO (%)” value is 11.34%.
In the case of `COc1cccc2sc(NC(=O)CN3CCc4ccccc4[C@H]3c3ccccc3)nc12` [Compound 4j, (R)–N–(4–methoxybenzo[d]thiazol–2–yl)–2–(1–phenyl–3,4–dihydroisoquinolin–2(1H)–yl)acetamide], in assay [1], the 50% inhibitory concentration (IC50) is more than 150 µM and the “Inhibition Rate (%) BuChE” value was determined as 51.52%. Also, in assay [2], the half-inhibitory concentration (IC50) was more than 150 µM and the “Inhibition Rate (%) AChE” value amounted to 12.71%. Further, in assay [3], the half-maximal inhibitory concentration (IC50) was more than 150 µM and the “Inhibition Rate of MAO (%)” value is 5.70%.
In the case of `O=C(CN1CCc2ccccc2[C@H]1c1ccccc1)Nc1nc2c(Cl)cccc2s1` [Compound 4a, (R)–N–(4–chlorobenzo[d]thiazol–2–yl)–2–(1–phenyl–3,4–dihydroisoquinolin–2(1H)–yl)acetamide], in assay [1], the half-inhibitory concentration (IC50) is more than 150 µM and the “Inhibition Rate (%) BuChE” value was found to be 38.08%. For the same molecule, in assay [2], the concentration for half-maximal inhibition (IC50) is more than 150 µM and the “Inhibition Rate (%) AChE” value amounted to 6.08%. For the same molecule, in assay [3], the half-inhibitory concentration (IC50) was more than 150 µM and the “Inhibition Rate of MAO (%)” value is given as 14.93%.
With `COc1ccc2sc(NC(=O)CN3CCc4ccccc4[C@H]3c3ccccc3)nc2c1` [Compound 4k, (R)–N–(5–methoxybenzo[d]thiazol–2–yl)–2–(1–phenyl–3,4–dihydroisoquinolin–2(1H)–yl)acetamide], in assay [1], the IC50 amounted to 10.2 ± 2.91 µM and the “Inhibition Rate (%) BuChE” value was determined as 57.92%. For the same molecule, in assay [2], the IC50 is more than 150 µM and the “Inhibition Rate (%) AChE” value was determined as 3.31%. In assay [3], inhibition was half-maximal at 65.5 ± 3.51 µM (IC50) and the “Inhibition Rate of MAO (%)” value came to 17.75%.
As for `O=C(CN1CCc2ccccc2[C@H]1c1ccccc1)Nc1nc2c(Br)cc(Br)cc2s1` [Compound 4p, (R)–N–(4,6–dibromobenzo[d]thiazol–2–yl)–2–(1–phenyl–3,4–dihydroisoquinolin–2(1H)–yl)acetamide], in assay [1], inhibition was half-maximal at 27.1 ± 1.73 µM (IC50) and the “Inhibition Rate (%) BuChE” value came out at 43.84%. In assay [2], the 50% inhibitory concentration (IC50) is more than 150 µM and the “Inhibition Rate (%) AChE” value came to 6.63%. In assay [3], the IC50 came out at 59.3 ± 3.22 µM and the “Inhibition Rate of MAO (%)” value turned out to be 19.80%.
Consider `C#CCN(C)Cc1ccccc1` [Pargyline, reference compound], for which the “Inhibition Rate (%) MAO–B” value in assay [4] came to 93.47%.
Take `CNCCC(Oc1ccc(C(F)(F)F)cc1)c1ccccc1` (stereo not shown) [Fluoxetine, reference compound]: the “Duration of Immobility” value in assay [5] (30 min after administration, mean ± SEM (n = 8)) turned out to be 31.7 ± 7.7 s. Besides, the “DID (%) percentage decrease in immobility duration” value in assay [5] came to 82.20%; in assay [5] (listed as fluoxetine) it was 82.2%.

These data come from publication PMC9782539, “Synthesis, Characterization and Biological Evaluation of Benzothiazole–Isoquinoline Derivative” (Molecules, 2022).
